# Active and inactive are the calls of the source. The calls are words filed in the database; no cut-off is given here.
# Tests used:
# Blood brain barrier = test: Permeability across blood brain barrier of Rattus norvegicus Sprague-Dawley (rat) at 10 mg/kg, iv; format: ADME, organism-based; parameters: dose 10 mg/kg, route intravenous; conditions: in vivo
# Glioma = test: Antitumor activity against Homo sapiens (human) Glioma cells xenografted in transgenic mouse assessed as mouse survival; format: functional, cell-based
# [1] = molecular target: T1, ATP-dependent translocase ABCB1 (Homo sapiens, UniProt P08183); test: Modulation of P-gp ATPase activity (unknown origin) at 10 uM by spectrophotometry (RvB = 30.2 nmol/mg/min)
# [2] = molecular target: T1, ATP-dependent translocase ABCB1; test: Inhibition of Vinblastine-induced P-gp ATPase activity (unknown origin) at 1 uM by spectrophotometry (reference value: 42.8 nmol/mg/min)
# [3] = molecular target: T1, ATP-dependent translocase ABCB1; test: Inhibition of Verapamil-induced P-gp ATPase activity (unknown origin) at 10 uM by spectrophotometry (reference value: 90.7 nmol/mg/min)
# [4] = molecular target: T1, ATP-dependent translocase ABCB1; test: Modulation of P-gp ATPase activity (unknown origin) at 1 uM by spectrophotometry (RvB = 30.2 nmol/mg/min)
# Cerebrospinal fluid = test: Drug uptake in Rattus norvegicus Sprague-Dawley (rat) CSF at 10 mg/kg, iv after 1 hr by HPLC analysis; format: ADME, organism-based; parameters: dose 10 mg/kg, route intravenous; conditions: in vivo
# Brain = test: Drug uptake in Rattus norvegicus Sprague-Dawley (rat) brain at 10 mg/kg, iv by HPLC analysis; format: ADME, organism-based; parameters: dose 10 mg/kg, route intravenous; conditions: in vivo
# [5] = molecular target: T1, ATP-dependent translocase ABCB1; test: Inhibition of Verapamil-induced P-gp ATPase activity (unknown origin) at 1 uM by spectrophotometry (reference value: 90.7 nmol/mg/min)
# [6] = molecular target: T1, ATP-dependent translocase ABCB1; test: Inhibition of Progesterone-induced P-gp ATPase activity (unknown origin) at 1 uM by spectrophotometry (reference value: 61.5 nmol/mg/min)
# [7] = molecular target: T1, ATP-dependent translocase ABCB1; test: Inhibition of Vinblastine-induced P-gp ATPase activity (unknown origin) at 10 uM by spectrophotometry (reference value: 42.8 nmol/mg/min)
# [8] = molecular target: T1, ATP-dependent translocase ABCB1; test: Inhibition of Progesterone-induced P-gp ATPase activity (unknown origin) at 10 uM by spectrophotometry (reference value: 61.5 nmol/mg/min)
# T1 sequence (P08183 whole entry): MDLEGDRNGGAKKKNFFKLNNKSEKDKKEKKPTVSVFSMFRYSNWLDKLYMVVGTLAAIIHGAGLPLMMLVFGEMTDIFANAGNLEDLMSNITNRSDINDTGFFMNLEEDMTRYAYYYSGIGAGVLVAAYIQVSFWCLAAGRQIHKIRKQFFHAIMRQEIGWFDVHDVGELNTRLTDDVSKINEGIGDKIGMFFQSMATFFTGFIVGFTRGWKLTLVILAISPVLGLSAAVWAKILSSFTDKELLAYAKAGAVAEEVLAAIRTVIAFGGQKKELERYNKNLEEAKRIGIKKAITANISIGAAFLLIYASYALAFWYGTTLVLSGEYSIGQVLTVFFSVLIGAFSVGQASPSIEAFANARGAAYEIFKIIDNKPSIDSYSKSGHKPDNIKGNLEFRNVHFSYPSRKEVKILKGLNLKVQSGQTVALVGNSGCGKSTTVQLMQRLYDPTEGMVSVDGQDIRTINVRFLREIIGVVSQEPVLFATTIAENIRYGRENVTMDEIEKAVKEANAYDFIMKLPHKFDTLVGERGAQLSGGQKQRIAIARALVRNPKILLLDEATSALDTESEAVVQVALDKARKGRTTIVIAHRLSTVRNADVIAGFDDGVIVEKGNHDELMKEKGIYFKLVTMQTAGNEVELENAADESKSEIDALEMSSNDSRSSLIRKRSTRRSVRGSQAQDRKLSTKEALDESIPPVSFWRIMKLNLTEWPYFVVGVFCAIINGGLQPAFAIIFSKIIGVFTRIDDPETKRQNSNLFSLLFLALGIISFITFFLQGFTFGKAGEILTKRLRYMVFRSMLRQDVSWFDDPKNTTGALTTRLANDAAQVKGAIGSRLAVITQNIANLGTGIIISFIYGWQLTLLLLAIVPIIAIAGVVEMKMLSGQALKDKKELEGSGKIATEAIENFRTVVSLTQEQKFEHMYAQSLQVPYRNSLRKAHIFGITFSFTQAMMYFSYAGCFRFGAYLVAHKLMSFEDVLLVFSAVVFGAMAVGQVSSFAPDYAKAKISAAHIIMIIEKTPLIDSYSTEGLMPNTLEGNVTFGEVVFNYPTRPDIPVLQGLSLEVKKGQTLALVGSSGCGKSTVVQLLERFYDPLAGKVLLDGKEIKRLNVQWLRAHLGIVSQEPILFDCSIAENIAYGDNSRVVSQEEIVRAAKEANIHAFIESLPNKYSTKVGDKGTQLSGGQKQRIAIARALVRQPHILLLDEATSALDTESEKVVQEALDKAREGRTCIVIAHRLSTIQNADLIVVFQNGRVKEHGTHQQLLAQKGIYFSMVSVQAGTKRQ
Structure (SMILES),pBBB (Blood brain barrier) [×10⁻³ cm/s],Activity (Glioma),Activity [1] [nmol/mg/min],Activity [2] [nmol/mg/min],Activity [3] [nmol/mg/min],Activity [4] [nmol/mg/min],Drug uptake (Cerebrospinal fluid) [%],Drug uptake (Brain) [%],Activity [5] [nmol/mg/min],Activity [6] [nmol/mg/min],Activity [7] [nmol/mg/min],Activity [8] [nmol/mg/min]
Cn1nnc2c(C(N)=O)ncn2c1=O [TEMOZOLOMIDE],2.7,Active,,,,,,,,,,
Oc1ccc(CN(Cc2ccc(C(F)(F)F)cc2)Cc2ccc(O)c3ncccc23)c2cccnc12,,Active,33.1,34.3,77.1,31.3,0.037,2.2,84.5,54.8,30.8,51.8
